Experimental data from patent publication US20070275936A1, “Formulations and Treatment Methods” (priority 1998, published 2007).
Where two headings read alike, the source gives them in different places.

Columns and labels:
NK cell = NK cell counts in HIV/HCV infected patient dosed I.V. with BrEA; type: in vivo, human; settings: predosing 28
Experimental: A patient infected with HIV and HCV was dosed I.V. with BrEA for 3 consecutive days using a formulation that contained 20 mg/mL BrEA in 45% w/v hydroxypropyl-β-cyclodextrin and saline. Four mL of the formulation (80 mg BrEA) was administered to the patient every 4 hours during the 3 day treatment period. The patient's predosing HCV level was 6.5 Log10 as measured by PCR and the HCV level was 6.2 Log10 on the first day of dosing, 5.5 Log10 on the 3rd day of dosing and 4.9 Log10 three days after the last dose was administered. HIV RNA levels as measured by PCR was 5.2 Log10 (predosing), 5.8 Log10 (first day), 5.9 Log10 (third day) and 5.4 Log10 (day 6). The NK cell counts (cells/mm^3) were 28, 41 and 38 at predosing, day 0 and day 3.

[1] = Pharmacokinetics of BrEA after subcutaneous dose in rats; type: in vivo; settings: for half-life: rat, plasma, sc, biphasic elimination
Experimental: BrEA was administered subcutaneously to rats using the formulation of example 1. Approximately 90% of the drug left the injection site within 24 hours of administration, and reached a maximum concentration in the plasma of about 0.2% of the injected dose at one hour post administration. Elimination from the plasma was biphasic, with half-lives of about 12 and 72 hours respectively. […] A study is also performed in Rhesus Monkeys with the example 1 formulation to determine plasma pharmacokinetics.

[2] = tested on: HIV infected patients with chronic diarrhea; assay: Treatment of chronic diarrhea in HIV infected patients; type: in vivo, human; settings: two HIV infected patients, 60 mg s.c. daily for 10 days, during the period of dosing
Experimental: Two HIV infected patients with chronic diarrhea were dosed with BrEA as follows. A BrEA formulation (40 mg/mL BrEA in 25% v/v PEG 300, 12.5% v/v ethanol, 5% v/v benzyl benzoate, ˜57.5% v/v propylene glycol) was delivered subcutaneously. The patients received 60 mg of BrEA in 1.5 mL daily for 10 days. […] After the 10-day dosing period ended, diarrhea resumed. In other patients receiveing oral BrEA, diarrhea also went into remission.

P. berghei = assay: Survival of P. berghei infected mice given BrEA I.V. or S.C.; type: in vivo; settings: cyclodextrin formulation, all control animals dead by day 10
Experimental: In a similar protocol, mice are inoculated with a solution containing 1×10^7 erythrocytes/mL by I.V. injection. Two hours later give drug is delivered by I.V. injection. BrEA or another formula 1 compound is given (0.2 mL I.V. or S.C.) once a day for 4 days. Tail snips are used to obtain blood after the study. Mice infected with P. berghei were used to obtain infected cells. Parasites are harvested from cardiac mouse blood, and uninfected mice are infected using 0.2 ml of blood with 14% parasitaemia per mouse I.V. Two hours later, the first dose of BrEA (100 mg/kg I.V. or S.C.) is delivered to the infected animals. The BrEA formulation was a sterile solution containing 15 mg/mL of BrEA in 45% hydroxypropyl-β-cyclodextrin and 0.9% saline. At 1, 2, 3 and 4 days after the infection of the animals, BrEA (100 mg/kg I.V. or S.C.) is delivered to the infected animals.

Wistar rats = assay: DNBS induced distal colitis in rats; type: in vivo
Experimental: Groups of 3 male Wistar rats (180±20 grams) fasted for 24 hours before 2,4-dinitrobenzene sulfonic acid (DNBS) or saline challenge were used. Distal colitis was induced by intra-colonic instillation of 0.5 mL of an ethanolic solution of DNBS (30 mg in 0.5 mL of a 30% ethanol in saline solution) after which 2 mL of air was injected through the cannula to ensure that the solution remained in the colon. The volume used was 0.1 mL per injection of 2 and 20 mg/mL of 7-oxodehydroepiandrosterone in a liquid formulation, was administered by subcutaneous injection once a day for 6 days. The formulation contained […] of 7-oxodehydroepiandrosterone in a non-aqueous suspension that contained 2% benzyl alcohol w/v, 0.1% Brij 96 w/v and equal volumes of PEG 300 and propylene glycol. Concentrations of 2 mg/mL and 20 mg/mL were obtained by diluting the […] with vehicle that lacked the active substance.
The first dose was given 30 minutes after DNBS challenge. Sulfasalazine (30 mg/mL in 2% Tween 80 in distilled water) was administered orally (PO) once a day (10 mL/kg/day) for 7 days, the first two doses beginning 24 hours and 2 hours before DNBS challenge. The presence of diarrhea was recorded daily by examining the anal area. Animals were fasted for 24 hours prior to being sacrificed. Animals were sacrificed on day 7 or day 8 and their colons were removed and weighed. Before removal of the colon, signs of adhesion between the colon and other organs were recorded. Also, the presence of ulcerations was noted after weighing of each colon. The “net” change of colon-to-body weight (BW) ratio was normalized relative to saline-challenged baseline group. A 30% decrease in “net” colon-to-body weight ratio was considered significant.
A total of five studies were conducted. Data from the first study are reported in this report. The 7-oxodehydroepiandrosterone at 2 and 20 mg/mL, decreased the net colon-to-body weight ratio by 19 and by 14% relative to vehicle-treated group, respectively. […] The formula 1 compound 3β,7β,17β-trihydroxyandrost-5-ene (AET) was administered by subcutaneous injections of 2 and 20 mg/day for 5 or 6 days, with the first dose injected 30 minutes post-DNBS challenge. The AET formulation was the same as the 7-oxodehydroepiandrosterone formulation, except that AET replaced 7-oxodehydroepiandrosterone. AET decreased the net colon-to-body weight ratio by 15% and 21% relative to controls (see the table below). Animals treated with AET (20 mg/kg) had no diarrhea. […] The same formulations containing BrEA hemihydrate (100 mg/mL) or dehydroepiandrosterone (20 mg/mL) decreased the net colon-to-body weight ratio by 21 and 3%, respectively relative to controls.

| SMILES | NK cell counts (NK cell; day 0) [cells/mm^3] | NK cell counts (NK cell; day 3) [cells/mm^3] | half-life ([1]; rats s.c., read-out: plasma elimination half-life, first phase (converted)) [h] | half-life ([1]; rats s.c., read-out: plasma elimination half-life, second phase (converted)) [h] | accumulation in organs ([1]; rats s.c.) | route of excretion ([1]; rats s.c.) | time of maximum concentration in the plasma ([1]; rats s.c.) | maximum concentration in the plasma ([1]; rats s.c., at one hour post administration) | drug left the injection site ([1]; rats, subcutaneous, formulation of example 1, within 24 hours) | effect on chronic diarrhea [2] | survival of infected mice (P. berghei; BrEA 100 mg/kg I.V. daily) | survival of infected mice (P. berghei; BrEA 100 mg/kg S.C. daily) | animals with severe acute inflammation (Wistar rats; 7 days after DNBS challenge, 3 of 10 in immunosteroid vehicle controls) [animals] | animals with moderate acute inflammation (Wistar rats; 7 days after DNBS challenge, 5 of 10 in immunosteroid vehicle controls) [animals] | animals with severe chronic inflammation (Wistar rats; 14 days after DNBS challenge, 8 of 10 in immunosteroid vehicle controls) [animals] | decrease of net colon-to-body weight ratio relative to vehicle/controls (Wistar rats; DNBS rats, 20 mg/mL formulation s.c.) [%] | animals with severe ulceration (Wistar rats; day 7 (acute inflammation) after DNBS challenge, vehicle control 8 of 10) | animals with severe ulceration (Wistar rats; day 14 (chronic inflammation) after DNBS challenge, vehicle controls 5 of 10) |
| --- | --- | --- | --- | --- | --- | --- | --- | --- | --- | --- | --- | --- | --- | --- | --- | --- | --- | --- |
| C[C@]12CC[C@H](O)C[C@@H]1CC[C@@H]1[C@@H]2CC[C@]2(C)C(=O)[C@H](Br)C[C@@H]12 [BrEA, 16α-bromo-3β-hydroxy-5α-androstane-17-one] | 41 | 38 | ~12 | ~72 | did not accumulate to a significant extent in any major organ | excreted primarily in the feces | one | about 0.2 % of the injected dose | Approximately 90% | the diarrhea ceased | No deaths occurred in the group receiving I.V. BrEA at day 30 | dead by Day 11 | – | – | – | – | – | – |
| C[C@]12CC[C@H](O)CC1=CC[C@@H]1[C@@H]2CC[C@]2(C)C(=O)CC[C@@H]12 [DHEA, dehydroepiandrosterone, reference compound] | – | – | – | – | – | – | – | – | – | – | – | – | 10 | 0 | 3 | 3 | 10 of 10 | 0 of 10 |
